Experimental data: patent US11083724B2, “Rimegepant for CGRP related disorders” (Biohaven Pharmaceutical Holding Company Ltd., priority 2018, dated 2021)

Assays:
[1] = tested on: subjects with Acute Migraines; test: Pooled adverse event and liver function test data, Studies 301, 302 and 303; type: in vivo, human; conditions: for bilirubin elevations > 2 × ULN: across Studies 301, 302 and 303
[2] = tested on: subjects with Acute Migraines; test: Pooled liver function test profile, Study 301 and Study 302; type: in vivo, human
Description: (§1) In a double-blind, randomized, placebo-controlled, multicenter study (Study 301, NCT03235479) adults≥18 years of age with at least a 1-year history of ICHD 3-beta migraine were eligible to participate. Following a 3- to 28-day screening period, subjects were randomized to receive rimegepant 75 mg or matching placebo and instructed to treat a single migraine attack with 1 dose of the blinded study drug (rimegepant or placebo) when headache pain reached moderate or severe intensity. The coprimary endpoints were pain freedom at 2 hours postdose and freedom from the most bothersome symptom (MBS) at 2 hours postdose. Safety assessments included adverse events (AEs), ECGs, vital signs, physical measurements, and routine laboratory tests, including assessment of liver function. Unless stated otherwise, values presented are mean±SD.
as §1, with “302, NCT03237845)” for “301, NCT03235479)”

[3] = pooled Studies 301, 302, 303, n = 1,771
[4] = pooled Studies 301, 302, 303, n = 1,771, AST elevation, not drug-related
[5] = pooled Studies 301, 302, 303, within 48 hours post-dose, n = 1,771
[6] = pooled Study 301 and 302, n = 1089

With `N[C@@H]1c2cccnc2[C@H](OC(=O)N2CCC(n3c(=O)[nH]c4ncccc43)CC2)CC[C@H]1c1cccc(F)c1F` [Rimegepant, [(5S,6S,9R)-5-amino-6-(2,3-difluorophenyl)-6,7,8,9-tetrahydro-5H-cyclohepta[b]pyridin-9-yl] 4-(2-oxo-3H-imidazo[4,5-b]pyridin-1-yl)piperidine-1-carboxylate] the “bilirubin elevations > 2 × ULN” value [1] was “*AST/ALT Categories are not mutually exclusive; No bilirubin elevations > 2 × ULN across Studies 301, 302 and 303”, the “bilirubin elevations > 2 × ULN” value ([1]; listed as rimegepant) was “no patients” and the “drug-related Serious Adverse Events (SAEs)” value ([1]; pooled Studies 301, 302, 303) was “**No drug-related Serious Adverse Events (SAEs). 2 of the subjects with SAE in rimegepant group and 1 in placebo group had not been dosed before onset of SAE”. For the same molecule, the “ALT or AST >3 × ULN, number of subjects” value [1, 3] was 2, the “ALT or AST >3 × ULN, percent of subjects” value [1, 3] was “(0.1%)” and the “ALT or AST >20 × ULN, number of subjects” value [1, 3] was 0. For the same molecule, the “ALT or AST >ULN, number of subjects” value [1, 3] was 48, the “ALT or AST >ULN, percent of subjects” value [1, 3] was “(2.7%)” and the “SAEs, number of patients” value [1, 3] was 3. For the same molecule, the “SAEs, percent of patients” value [1, 3] was 0.2%, the “ALT or AST >5 × ULN, number of subjects” value [1, 4] was 1 and the “ALT or AST >5 × ULN, percent of subjects” value [1, 4] was “(0.06%)^2”. The “AE Nausea, number of patients” value [1, 5] was 26, the “AE Nausea, percent of patients” value [1, 5] was 1.5% and the “AE UTI, number of patients” value [1, 5] was 21. For the same molecule, the “AE UTI, percent of patients” value [1, 5] was 1.2%, the “≥1 On-Study AE, number of patients” value [1, 5] was 252 and the “≥1 On-Study AE, percent of patients” value [1, 5] was 14.2%. The “Pooled Liver Function Test profile versus placebo” value ([2]; Study 301 and Study 302) was “Rimegepant was Similar to Placebo in Both Studies”, the “bilirubin elevations > 2 × ULN” value ([2]; across both Studies 301 and 302) was “*No bilirubin elevations > 2 × ULN across both Studies 301 and 302” and the “ALT >3 × ULN, number of subjects” value [2, 6] was 1. For the same molecule, the “ALT >3 × ULN, percent of subjects” value [2, 6] was 0.1%, the “ALT >5 × ULN, number of subjects” value [2, 6] was 0 and the “ALT >10 × ULN, number of subjects” value [2, 6] was 0. The “ALT >20 × ULN, number of subjects” value [2, 6] was 0, the “ALT >ULN, number of subjects” value [2, 6] was 22 and the “ALT >ULN, percent of subjects” value [2, 6] was 2.0%. For the same molecule, the “AST >3 × ULN, number of subjects” value [2, 6] was 1, the “AST >3 × ULN, percent of subjects” value [2, 6] was 0.1% and the “AST >5 × ULN, number of subjects” value [2, 6] was 0. The “AST >10 × ULN, number of subjects” value [2, 6] was 0, the “AST >20 × ULN, number of subjects” value [2, 6] was 0 and the “AST >ULN, number of subjects” value [2, 6] was 12. For the same molecule, the “AST >ULN, percent of subjects” value [2, 6] was 1.1%.
